Results from patent publication US4876248A, “Anti-inflammatory products derived from methylene-diphosphonic acid, and process for their preparation” (priority 1982, dated 1989).
Structures can show the parent of a compound that is named as a salt.

System: Adjuvant arthritis
Experiment: Adjuvant arthritis in the rat (in vivo study), weight of the paw
Set-up: species or system rat (male Sprague-Dawley)
Settings: 10 mg/kg per day cutaneously, 6 days per week, 3 weeks, started 15 days after Mycobacterium tuberculosis injection, right rear paw

| SMILES | Adjuvant arthritis, weight of the paw % inhibition (difference in average paw weight of treated arthritic rats relative to reference arthritic rats) [%] |
| --- | --- |
| O=P(O)(O)C(O)(CCSc1ccccc1)P(=O)(O)O [SR 42 017] | 49 |
| O=P(O)(O)C(Sc1nc2cc(Cl)ccc2[nH]1)P(=O)(O)O [SR 41 480] | 40 |
| CC(C)OP(=O)(OC(C)C)C(CCCSc1ccccc1)P(=O)(OC(C)C)OC(C)C [SR 41 341, Tetraisopropyl 4-phenylthio-butylene-1,1-diphosphonate] | 24 |
| O=P(O)(O)C(Sc1cccs1)P(=O)(O)O [SR 41 549, thien-2-yl-thiomethylene-diphosphonic acid] | 34 |
| O=P(O)(O)C(Sc1ccccc1Cl)P(=O)(O)O [SR 41 689] | 31 |
| NCCSC(P(=O)(O)O)P(=O)(O)O [SR 41 266] | 29 |
| O=P(O)(O)C(CCCCSc1ccccn1)P(=O)(O)O [SR 42 099, 5-(pyrid-2-yl-thio)-pentylidene-1,1-diphosphonic acid] | 44 |
| O=P(O)(O)C(CCCCCCSc1ccc(Cl)cc1)P(=O)(O)O [SR 41 959] | 60 |
| O=P(O)(O)C(CCCSc1ccccc1)P(=O)(O)O [SR 41 342, Di-(tertiarybutylamine salt) of 4-phenylthio-butylidene-1,1-diphosphonic acid] | 38 |
| O=P(O)(O)C(O)(CCCCSc1ccc(F)cc1)P(=O)(O)O [SR 41 909, Di-(tertiarybutylamine) salt of 5-(4-fluorophenylthio)-1-hydroxy-pentylidene-1,1-diphosphonic acid] | 53 |
| O=P(O)(O)C(CCCCS)P(=O)(O)O [SR 41 527, Di-(tertiarybutylalmine) salt of 5-mercapto-pentylidene-1,1-diphosphonic acid] | 34 |
| CCCCCCCSC(P(=O)(O)O)P(=O)(O)O [SR 41 552] | 36 |
| CCCCCCCCSC(P(=O)(OC(C)C)OC(C)C)P(=O)(OC(C)C)OC(C)C [SR 41 454, Tetraisopropyl n-octylthiomethylene-diphosphonate] | 33 |
| CSCCC(P(=O)(O)O)P(=O)(O)O [SR 41 273, Tertiary butylamine salt of 3-methylthio-propylidene-1,1-diphosphonic acid] | 39 |
| CSC(P(=O)(O)O)P(=O)(O)O [SR 41 036, Tri-(tertiary butylamine) salt of methylthio-methylene-diphosphonic acid] | 23 |
| CCCCCSCCCC(O)(P(=O)(O)O)P(=O)(O)O [SR 41 961] | 53 |

| SMILES | Adjuvant arthritis, weight of the paw % inhibition (difference in average paw weight of treated arthritic rats relative to reference arthritic rats) [%] |
| --- | --- |
| O=P(O)(O)C(O)(CCCCSc1ccc(Cl)cc1)P(=O)(O)O [SR 42 016] | 48 |
| Nc1ccccc1SC(P(=O)(O)O)P(=O)(O)O [SR 41 388] | 42 |
| CC(C)OP(=O)(OC(C)C)C(Sc1ccccc1C(=O)O)P(=O)(OC(C)C)OC(C)C [SR 41 452] | 15 |
| O=P(O)(O)C(Sc1ccccc1)P(=O)(O)O [SR 41 482] | 41 |
| CCCSCCCCCC(O)(P(=O)(O)O)P(=O)(O)O [SR 42 015] | 47 |
| CSCCCCCCCCCCC(O)(P(=O)(O)O)P(=O)(O)O [SR 42 097] | 50 |
| CC(C)SC(P(=O)(O)O)P(=O)(O)O [SR 41 100] | 37 |
| O=P(O)(O)C(Sc1nc2ccccc2[nH]1)P(=O)(O)O [SR 41 263] | 19 |
| O=P(O)(O)C(O)(CCCSc1ccc(Cl)cc1)P(=O)(O)O [SR 41 903, Di-(tertiarybutylamine) salt of 4-(4-chlorophenylthio)-1-hydroxy-butylidene-1,1-diphosphonic acid] | 55 |
| CCCCCCCCSC(P(=O)(O)O)P(=O)(O)O [SR 41 421] | 55 |
| O=P(O)(O)C(Sc1ncccn1)P(=O)(O)O [SR 41 264] | 43 |
| O=P(O)(O)C(Sc1nc2ccccc2s1)P(=O)(O)O [SR 41 481, Tri-(tertiarybutylamine) salt of benzothiazol-2-yl-thiomethylene-diphosphonic acid] | 40 |
| O=P(O)(O)C(Sc1ccccn1)P(=O)(O)O [SR 41 179] | 25 |
| CN(C)CCSC(P(=O)(O)O)P(=O)(O)O [SR 41 344] | 35 |
| CCCCCCCCCCCCCCCCSC(P(=O)(O)O)P(=O)(O)O [SR 41 453, Monoammonium hexadecylthiomethylene-diphosphonate] | 58 |
